Reference: patent US20040006236A1, “Diaminopropionic acid derivatives” (priority 1999, published 2004)

What was measured:
[1] = test system: Mac-1 and LFA-1-mediated neutrophil binding to immobilized ICAM-1; assay: Neutrophil (Mac-1 and LFA-1)/ICAM-1 cell-based screening assay; conditions: human neutrophils
Description: Both Mac-1 and LFA-1 are expressed on the cell surface of neutrophils. The ability of antagonists to inhibit Mac-1 and LFA-1-mediated neutrophil binding to immobilized ICAM-1 was quantitated by a cell based assay. Typically, fusion protein consisting of the entire extracellular domain of human ICAM-1 and the Fc domain of human IgG (5dICAM-Ig) was coated onto 96 well microtiter plates (1 μg in 100 μL TBS) overnight at 4° C. The plates were then blocked with 150 μL of 10% PVP in TBS for 1 h at 37° C. Plates were washed 3 times (150 μL each) with TBS. Human neutrophils were purified from whole blood from healthy volunteers using LSM (ICN). Cells (8×10^6/mL) were fluorescently labeled with 6-carboxyfluorescein (100 μg/mL) for 40 min in IMDM/1 mM MgCl2/1.2 mM CaCl2 as described in Example 287. Cells (8×10^6/mL) were stimulated with f-Met-Leu-Phe (10 μM) for 5 min at room temperature just prior to being used in the assay, and diluted to 2×10^6 cells/mL with RPMI/0.05% BSA/0.2 mM MnCl2. Stock solutions (10 mM) of test compounds were diluted to 2.5 mM with DMSO. A series of 1:4 dilutions in DMSO were performed to achieve a concentration range of 38.2 nM-2.5 mM. Each sample was further diluted 50-fold with RPMI/0.05% BSA/0.2 mM MnCl2. Equal volumes of labeled cells were then added to assay tubes containing diluted compound. Final concentrations of compound tested in the assay ranged from 0.38 nM-25 μM with a cell concentration of 1×10^6 per mL. Cells were incubated for 10 min at 37° C. with gentle shaking, then dispensed (100 μL per well) onto ICAM-1 coated plates and incubated for 30 min at 37° C./5% CO2. Unbound cells were washed and plates were read on a Cytofluor™ 2300 (Millipore) as described in Example 384.

BALB/c mice = assay: Croton oil-induced dermatitis in mice (ear swelling); format: in vivo; conditions: compared to distilled water pumps
Description: Adult female BALB/c mice (20-25 g) received 10 μl of 20 mg/ml of croton oil in 80% acetone:20% olive oil vehicle on each side of the right ear (total of 20 μl per mouse). All the mice received a similar volume of the acetone/olive oil vehicle on the contralateral left ear. Negative control mice received vehicle on both ears. Six hours thereafter, the ear swelling on both ears was measured with microcalipers. The ear swelling response was determined by subtraction of the swelling measurements of the left ear from that of the right ear for each individual mouse.
Inhibitors were administered to mice via 3 day Alzet osmotic minipumps. Pumps containing different concentrations of the inhibitors were implanted on the backs of anaesthetized mice 2 days prior to croton oil application. Additional mice received an equal volume of distilled water in pumps. For mice receiving antibodies, anti-CD18 antibody (HB226) or control rat IgG were administered i.p. at 200 μg per mouse 18 hours prior to croton oil application.
In table 11, the swelling response in antibody-treated animals is compared to the swelling response in rat IgG-treated animals. The swelling response in compound-treated animals is compared to the swelling-response in mice that had received pumps containing distilled water

C57BI/6 mice = assay: Delayed type hypersensitivity in mice (mBSA paw swelling); format: in vivo; conditions: compared to distilled water pumps
Description: Sensitization: On day 0, adult female C57BI/6 mice (20-25 g) received 50 μl each of a 1:1 mixture of 10 mg/ml methylated bovine serum albumin (mBSA) in phosphate buffered saline (PBS) and complete Freund's adjuvant (CFA) intradermally at two sites on shaved bellies (total volume 100 μl per mouse). Control mice received an equal volume of a PBS/CFA mixture (unsensitized).
Challenge: On day 7, the mice received 20 μl I of 5 mg/ml mBSA in PBS injected into the right hind paw. The contralateral left paw of each mouse was injected with an identical volume of PBS. After 24 hours, the paw swelling of both the hind feet of all mice was measured with microcalipers. To determine the paw swelling response, measurements of the left paw were subtracted from that of the right paw for each individual mouse.
At the time of challenge, anaesthetized mice were implanted on their backs with Alzet osmotic minipumps which delivered a constant volume per hour of the inhibitors (e.g. Example 226) subcutaneously. The pumps delivered a volume 200 μl over a period of 1 day. Different doses of the compounds were tested viz. 850, 250 and 85 mg/kg/day. The inhibitors were formulated in distilled water. Control mice received pumps containing distilled water. For antibody treatment groups, mice received 200 μg of anti-mouse LFA-1 (Mi7), anti-mouse Mac-1 (M1/70) or control rat IgG intraperitoneally on the day of challenge.
In table 10, the swelling response in antibody-treated animals is compared to the swelling response in rat IgG-treated animals. The swelling response in compound-treated animals is compared to the swelling-response in mice that had received pumps containing distilled water

Structure (SMILES)	IC50 [1] [nM]	other results
O=C(NCc1cccc(O)c1)c1ccc(C(=O)N[C@@H](CNC(=O)c2ccc3c(c2)S(=O)(=O)c2ccccc2C3=O)C(=O)O)c(Cl)c1 [Example 192]	634	
O=C(NC[C@H](NC(=O)c1c(F)cccc1Cl)C(=O)O)c1ccc2[nH]nnc2c1 [Example 226]		Percentage inhibition of ear swelling in response to croton oil application (BALB/c mice; 1 μM, osmotic minipump): 8%; Percentage inhibition of ear swelling in response to croton oil application (BALB/c mice; 2 μM circulating serum level (64 mg/kg/day, osmotic minipump)): 48%; Percentage inhibition of ear swelling in response to croton oil application (BALB/c mice; 4 μM circulating serum level (250 mg/kg/day, osmotic minipump)): 62%; Percentage inhibition of paw swelling in response to challenge with methylated bovine serum albumin (C57BI/6 mice; 1 μM, s.c. osmotic minipump): −2%; Percentage inhibition of paw swelling in response to challenge with methylated bovine serum albumin (C57BI/6 mice; 3 μM circulating serum level (250 mg/kg/day, s.c. osmotic minipump)): 52%; Percentage inhibition of paw swelling in response to challenge with methylated bovine serum albumin (C57BI/6 mice; 9 μM circulating serum level (850 mg/kg/day, s.c. osmotic minipump)): 77%
O=C(NCc1cccc(O)c1)c1ccc(C(=O)N[C@@H](CNC(=O)c2cc(F)cc(F)c2)C(=O)O)c(Cl)c1 [Example 252, N-[2-chloro-4-[[[(3-hydroxyphenyl)methyl]amino]carbonyl]benzoyl]-3-(3,5-difluorobenzoyl)amino-L-alanine]	34	
O=C(NCc1cccc(O)c1)c1ccc(C(=O)N[C@@H](CNC(=O)c2ccoc2)C(=O)O)c(Cl)c1 [Example 259, N-[2-chloro-4-[[[(3-hydroxyphenyl)methyl]amino]carbonyl]benzoyl]-3-(furan-3-carbonyl)amino-L-alanine]	21	
O=C(NCc1cccc(O)c1)c1ccc(C(=O)N[C@@H](CNC(=O)c2cccs2)C(=O)O)c(Cl)c1 [Example 303, N-[2-chloro-4-[[[(3-hydroxyphenyl)methyl]amino]carbonyl]benzoyl]-3-(thiophene-2-carbonyl)amino-L-alanine]	16	
O=C(NCc1cccc2[nH]ncc12)c1ccc(C(=O)N[C@@H](CNC(=O)c2cccs2)C(=O)O)c(Cl)c1 [Example 327, N-[2-chloro-4-[[[(1H-indazol-4-yl)methyl]amino]carbonyl]benzoyl]-3-(thiophene-2-carbonyl)amino-L-alanine]	20	
Cc1cc(C(=O)NCc2cccc(O)c2)cc(C)c1C(=O)N[C@@H](CNC(=O)c1cccs1)C(=O)O [Example 330]	6.7	
Cc1cc(C(=O)N[C@H](C)c2cccc3ccccc23)cc(C)c1C(=O)N[C@@H](CNC(=O)c1cccs1)C(=O)O [Example 333]	14	
Cc1cc(C(=O)NCc2cccc(O)c2)cc(C)c1C(=O)N[C@@H](CNC(=O)c1ccsc1)C(=O)O [Example 336, N-[2,6-dimethyl-4-[[[(3-hydroxyphenyl)methyl]amino]carbonyl]benzoyl]-3-(thiophene-3-carbonyl)amino-L-alanine]	6.1	
Cc1cc(C(=O)NCc2cccc(O)c2)cc(C)c1C(=O)N[C@@H](CNC(=O)c1cc(F)cc(F)c1)C(=O)O [Example 337, N-[2,6-dimethyl-4-[[[(3-hydroxyphenyl)methyl]amino]carbonyl]benzoyl]-3-(3,5-difluorobenzoylamino)-L-alanine]	12	
Cc1cc(C(=O)NCc2cccc(O)c2)cc(Cl)c1C(=O)N[C@@H](CNC(=O)c1cccs1)C(=O)O [Example 338, N-[2-chloro-4-[[[(3-hydroxyphenyl)methyl]amino]carbonyl]-6-methylbenzoyl]-3-[(thiophene-2-carbonyl)amino]-L-alanine]	3.9	
O=C(NCc1cccc(O)c1)c1cc(Cl)c(C(=O)N[C@@H](CNC(=O)c2cccs2)C(=O)O)c(Cl)c1 [Example 342, N-[2,6-dichloro-4-[[[(3-hydroxyphenyl)methyl]amino]carbonyl]benzoyl]-3-[(thiophene-2-carbonyl)amino]-L-alanine]	2.3	
O=C(NCc1cccc(O)c1)c1cc(Cl)c(C(=O)N[C@@H](CNC(=O)c2ccsc2)C(=O)O)c(Cl)c1 [Example 343, N-[2,6-dichloro-4-[[[(3-hydroxyphenyl)methyl]amino]carbonyl]benzoyl]-3-[(thiophene-3-carbonyl)amino]-L-alanine]	1.9	

The remaining molecules from weak to strong by IC50 [1], led by results:

IC50 [1] [nM]	Structure (SMILES)	other results
253	O=C(CC1CCCCC1)NC[C@H](NC(=O)c1ccc(C(=O)NCc2cccc(O)c2)cc1Cl)C(=O)O [Example 78]	
61	Cc1cc(C(=O)NCc2cccc(O)c2)ccc1C(=O)N[C@@H](CNC(=O)c1cccs1)C(=O)O [Example 323]	
41	O=C(NCc1cccc(O)c1)c1ccc(C(=O)N[C@@H](CNC(=O)c2ccccc2)C(=O)O)c(Cl)c1 [Example 302, 3-benzoylamino-N-[2-chloro-4-[[[(3-hydroxyphenyl)methyl]amino]carbonyl]benzoyl]-L-alanine]	
4	Cc1cc(C(=O)NCc2cccc(O)c2)cc(Cl)c1C(=O)N[C@@H](CNC(=O)c1cc(F)cc(F)c1)C(=O)O [Example 340, N-[2-chloro-4-[[[(3-hydroxyphenyl)methyl]amino]carbonyl]-6-methylbenzoyl]-3-[(3,5-difluorobenzoyl)amino]-L-alanine]	
3	Cc1cc(C(=O)NCc2cccc(O)c2)cc(Cl)c1C(=O)N[C@@H](CNC(=O)c1ccsc1)C(=O)O [Example 339, N-[2-chloro-4-[[[(3-hydroxyphenyl)methyl]amino]carbonyl]-6-methylbenzoyl]-3-[(thiophene-3-carbonyl)amino]-L-alanine]	
1.7	O=C(NCc1cccc(O)c1)c1cc(Cl)c(C(=O)N[C@@H](CNC(=O)c2cc(F)cc(F)c2)C(=O)O)c(Cl)c1 [Example 344, N-[2,6-dichloro-4-[[[(3-hydroxyphenyl)methyl]amino]carbonyl]benzoyl]-3-[(3,5-difluorobenzoyl)amino]-L-alanine]	
0.1	O=C(NCc1cccc(O)c1)c1cc(Cl)c(C(=O)N[C@@H](CNC(=O)c2cc(O)cc(O)c2)C(=O)O)c(Cl)c1 [Example 345, N-[2,6-dichloro-4-[[[(3-hydroxyphenyl)methyl]amino]carbonyl]benzoyl]-3-(3,5-dihydroxybenzoylamino)-L-alanine]	
